Test results from paper PMC4823272 (Frontiers in Microbiology, 2016).

How the values were obtained:
[1] = test system: IFV (H1N1, A/Puerto Rico/8/34); test: rRT-PCR quantification of IFV captured on membranes; assay type: binding, influenza virus A/Puerto Rico/8/34 (H1N1); conditions: 1600 pfu incubated 1 h at 25°C; plastic plates; estimated from rRT-PCR standard curve (M gene, R^2 0.954)
Protocol: The pep-PE/DOPC (50:50) lipid monolayer was attached horizontally to plastic plates as described above. […] After washing with PBS, plates were incubated with AVL viral lysis buffer (QIAamp Viral RNA Mini Kit, QIAGEN) for 10 min. Viral RNA was extracted according to the manufacturer's instructions.
One-step RT-PCR was performed using QuantiTect SYBR Green PCR Kit (QIAGEN) with forward and reverse primers for the sequences of the matrix protein (M) gene for 244 bp (forward M30F2/08: 5′-[…] -3′; reverse M264R3/08: 5′-[…] -3′; Eisfeld et al., [2014]). The reaction was performed using a PikoReal Real-Time PCR system (TCR0096, Thermo Scientific). PCR was set up in a 10-μL reaction volume containing 5 μL of 2 × QuantiTect SYBR Green RT-PCR master mix, 0.1 μL of QuantiTect RT Mix, 0.5 μL of RNA template, 1 μL of forward and reverse primers (10 μM each), and 3.4 μL of RNase free water. […] Fluorescence was measured at the end of each cycle. […] A melting curve analysis consisted of 60°C for 30 s, and followed by a temperature increase to 95°C for 10 s with the continuous reading of fluorescence. The amplified products were analyzed by agarose gel electrophoresis (2.5% agarose) and detected by staining with ethidium bromide (Supplementary Figure 3A). […]

[2] = test system: HA; conditions: cited from earlier work
[3] = test system: IFV; conditions: ref Matsubara et al., [2010]; cited from earlier work
Excerpt: The first step in the infection of cells by IFV is the binding of HA to sialic acid-containing glycoconjugates (Skehel and Wiley, [2000]). Human HA strains preferentially bind to the terminal sialylgalactose structure (Neu5Acα2−6Gal), whereas avian and equine strains bind to the corresponding Neu5Acα2−3Gal (Suzuki, [2005]).

CCCCCCCC/C=C\CCCCCCCC(=O)OC[C@H](COP(=O)([O-])OCC[N+](C)(C)C)OC(=O)CCCCCCC/C=C\CCCCCCCC [DOPC, Dioleoylphosphatidylcholine]
amount of virus captured on the membrane [1]: 100 pfu

Neu5Acα2–3Galβ1–4Glcβ1–1′Cer [GM3]
HA binding to GM3 ([2]; ref Suzuki et al., [1986], Sato et al., [1996]): HA binds to GM3 through the sialyllactose structure

Ala-Arg-Leu-Pro-Arg
inhibition of IFV infection in cells [3]: exerts the inhibitory effects on IFV infection in cells | binding to receptor-binding site of HA ([2]; ref Matsubara et al., [2010]): binds to the receptor-binding site of HA by mimicking sialic acid
